Molecular target: Matrix protein 2 (Influenza A virus (A/Udorn/307/1972(H3N2)), UniProt P0DOF8, S31N)

| SMILES | Kd |
| --- | --- |
| CCC1(N)C2CC3CC(C2)CC1C3 (centres undefined) | Not Active |
| NC1C2CC3CC(C2)CC1C3 (centres undefined) | Not Active |
| CC1(N)C2CC3CC(C2)CC1C3 (centres undefined) | Not Active |
| NC12CC3CC(CC(C3)C1)C2 [AMANTADINE] | Not Active |

Reference: ChEMBL document CHEMBL4004820 (J Med Chem, 2017)
